Values after ≈ are worked out from the molar mass of the structure shown. Like-named read-outs stand apart in the source and are kept apart here.
How the values were obtained:
Escherichia coli [1] = assay: Antibacterial activity (statement)
Herpes simplex virus = assay: Antiviral activity in mice inoculated intravenously with Herpes simplex virus; assay type: in vivo; details: 400, 200 and 100 mg./kg./dose subcutaneously, four times daily, days 0-4; 40 LD50 virus intravenously
Experimental: The following is an example of the antiviral activity of antibiotic U-44,590. The antibiotic is administered subcutaneously to mice which are inoculated intravenously with Herpes simplex virus. Treatment is initiated 2 hours prior to viral infection and is followed by treatment four times daily for five consecutive days. A detailed account of the materials and methods and results are as follows:
Male mice, weighing approximately 20 gm. each, are divided into 4 groups of 20. Group 1 is treated with saline, Group 2 with 400 mg./kg./dose (mkd) U-44,590, Group 3 with 200 mkd U-44,590, and Group 4 with 100 mkd U-44,590. The antibiotic is dissolved in saline and administered subcutaneously in the nape of the neck at 8 a.m., 12 noon, 4 p.m., and 8 p.m. on days 0, 1, 2, 3, and 4. Herpes virus at 10^^-1.5 dilution, 0.05 ml/mouse, equivalent to a viral dose of 40 LD50 s, is inoculated into the tail vein at 10 a.m. on day 0. Paralysis and death are recorded daily.
Hind leg paralysis usually preceded death by 1-2 days. All mice died that became paralyzed. Death pattern of the 4 groups, as shown in the curves which follow, illustrates the dose response obtained.

[2] = system: Gram-negative and Gram-positive bacteria; assay: Antibacterial activity (statement); details: for example, Streptococcus hemolyticus, Klebsiella, Salmonella Sp., Serratia marcescens, Pasteurella multocida, Hemophilus Sp., Proteus morgani, Proteus rettgeri
Solubilities = assay type: physicochemical
Proteus mirabilis [3] = assay: Antibacterial activity, standard agar dilution test; assay type: cell-based; details: 16 h, 3 strains, Brain Heart Infusion, 37° C., 16-18 hours, read-out: Inhibition
Experimental: (§1) The above antibacterial spectrum was obtained by a standard agar dilution test with the following media and conditions:
(§2) Difco Brain Heart Infusion Medium was used for all test bacteria except P. multocida and Hemophilus species which were grown in Difco Blood Agar Base with 5% defibrinated rabbit blood. All were grown aerobically at 37° C. (except Hemophilus species, grown anaerobically) 16-18 hours. Inocula were grown overnite (16-18 hours) at 37° C. and used to seed agar at the rate of 0.025 ml. of 10^^-3 dilution (approximately 2500 to 25,000 bacteria per drop of inoculum).

Diplococcus pneumoniae = assay: as above; assay type: cell-based; details: Streptococcus pneumoniae, 16 h, 1 strain, Brain Heart Infusion, 37° C., 16-18 hours, read-out: Inhibition
Experimental: as §1, §2

Serratia marcescens = assay: as above; assay type: cell-based; details: 16 h, 2 strains, Brain Heart Infusion, 37° C., 16-18 hours, read-out: Inhibition
Experimental: as §1, §2

Staphylococcus aureus = assay: as above; assay type: cell-based; details: 16 h, 1 strain, Brain Heart Infusion, 37° C., 16-18 hours, read-out: Inhibition
Experimental: as §1, §2

[4] = system: Streptococcus hemolyticus; assay: as above; assay type: cell-based
Experimental: as §1, §2

Pseudomonas aeruginosa = assay: as above; assay type: cell-based; details: 16 h, 5 strains, Brain Heart Infusion, 37° C., 16-18 hours, read-out: Inhibition
Experimental: as §1, §2

Pasteurella multocida = assay: as above; assay type: cell-based; details: 16 h, 1 strain, Blood Agar Base with 5% defibrinated rabbit blood, 37° C., 16-18 hours, read-out: Inhibition
Experimental: as §1, §2

Proteus vulgaris [5] = assay: as above; assay type: cell-based; details: 16 h, 3 strains, Brain Heart Infusion, 37° C., 16-18 hours, read-out: Inhibition
Experimental: as §1, §2

Proteus morgani = assay: as above; assay type: cell-based; details: 16 h, 3 strains, Brain Heart Infusion, 37° C., 16-18 hours, read-out: Inhibition
Experimental: as §1, §2

Proteus mirabilis [6] = assay: In vivo testing in infected mice; details: IP challenge 1259 LD50, read-out: Activity (CD50)
From the text: (§3) In vivo testing of U-44,590 in mice infected with selected microorganisms is as follows: […]

[7] = system: Streptococcus hemolyticus; assay: In vivo testing in infected mice; details: Streptococcus pyogenes, Oral route, IP challenge 100 LD50, read-out: Activity (CD50)
From the text: as §3

Escherichia coli [8] = assay: In vivo testing in infected mice; details: IP challenge 79 LD50, read-out: Activity (CD50)
From the text: as §3

Proteus vulgaris [9] = assay: In vivo testing in infected mice
From the text: as §3

Salmonella flexneri = assay: In vivo testing in infected mice; details: IP challenge 40 LD50, read-out: Activity (CD50)
From the text: as §3

Herpes virus = assay: Activity against DNA viruses (statement); details: for example, the Herpes virus

In the case of `CN1CN([C@H]2C[C@H](O)[C@@H](CO)O2)C(=O)NC1=O` [U-44,590, 1(2-deoxy-β-D-erythro-pentofuranosyl)-5,6-dihydro-5-methyl-s-triazine-2,4(1H,3H)-dione], the “Activity against Escherichia coli” value (Escherichia coli [1]) is reported as “active against Escherichia coil”, the “Death pattern, statistical analysis of the results at day 11” value (Herpes simplex virus) is reported as “all 3 treated groups are significantly different from the control group (1)” and the “Effect on growth of bacteria” value [2] is reported as “adversely affecting the growth of Gram-negative and Gram-positive bacteria”. For the same molecule, the Solubility (Solubilities; in Me2 CO, EtOAc, hydrocarbons, CH2 Cl2 and CHCl3) was “relatively insoluble”, the Solubility (Solubilities; in water, and lower alcohols, for example, methanol and ethanol) was “Highly soluble” and the MIC (Proteus mirabilis [3]) was over 1000 µg/mL. For the same molecule, the MIC (Diplococcus pneumoniae) was 500 µg/mL (≈ 2040 µM), the MIC (Serratia marcescens) was 125 µg/mL (≈ 510 µM) and the MIC (Staphylococcus aureus) was over 1000 µg/mL. The “Activity against Streptococcus hemolyticus” value [4] was “active against Streptococcus hemolyticus”, the MIC ([4]; Streptococcus pyogenes, 16 h, Streptococcus hemolyticus, 1 strain, Brain Heart Infusion, 37° C., 16-18 hours, read-out: Inhibition) was 15.2 µg/mL (≈ 62 µM) and the MIC (Pseudomonas aeruginosa) was over 1000 µg/mL. For the same molecule, the MIC (Pasteurella multocida) was 125 µg/mL (≈ 510 µM), the MIC (Proteus vulgaris [5]) was over 1000 µg/mL and the MIC (Proteus morgani) was 62.5 to 250 µg/mL (≈ 255 to 1020 µM). It also gave an ED50 (Proteus mirabilis [6]; Oral route) of 101 mg/kg, an ED50 (Proteus mirabilis [6]; sc, Subcutaneous route) of 152 mg/kg and an ED50 [7] of over 160 mg/kg. For the same molecule, the ED50 (Escherichia coli [8]; Oral route) was 218 mg/kg, the ED50 (Escherichia coli [8]; sc, Subcutaneous route) was 141 mg/kg and the ED50 (Proteus vulgaris [9]; po, IP challenge 79 LD50, read-out: Activity (CD50)) was under 62.5 mg/kg. For the same molecule, the ED50 (Proteus vulgaris [9]; po, IP challenge 150 LD50 (line without organism name below Proteus vulgaris), read-out: Activity (CD50)) was about 30 mg/kg, the ED50 (Proteus vulgaris [9]; sc, Subcutaneous route, IP challenge 79 LD50, read-out: Activity (CD50)) was 100 mg/kg and the ED50 (Salmonella flexneri; Oral route) was 62.5 mg/kg. For the same molecule, the ED50 (Salmonella flexneri; sc, Subcutaneous route) was 38 mg/kg and the “Activity against DNA viruses” value (Herpes virus) was “active against DNA viruses”.

From patent US4022889A, “Therapeutic compositions of antibiotic U-44,590 and methods for using the same” (The Upjohn Company, priority 1975, dated 1977)
